The subject of assay [1] is LPS-induced TNFα production. Briefly: Lipopolysaccharide (LPS)-Induced TNFα Production (Rat LPS Assay). Particulars: at 20 mpk (IP). The assay is classed as in vivo.
The subject of assay [2] is endotoxin-induced shock. Particulars: murine model of endotoxin-induced shock; cited from earlier work.
Assay [3] deals with collagen-induced arthritis. Particulars: mouse; cited from earlier work.
Assay [4] relates to adjuvant arthritis. Particulars: rat; cited from earlier work.
Assay [5] relates to MK-2. Particulars: cited from earlier work.
Assay [6] has as its system granulomas. Particulars: laboratory rats; cited from earlier work.

We go through three compounds from patent US6909001B2 (Pharmacia Corporation, priority 2002, dated 2005).

Turning to `N#Cc1c(N)nc2c(c1N)Cc1ccc(OCCN)cc1O2` [Example 12, 2,4-diamino-8-(2-aminoethoxy)-5H-chromeno[2,3-b]pyridine-3-carbonitrile], in assay [1], the “Rat LPS Assay inhibition” value was determined as 88%.
For the compound `C[S+]([O-])c1ccc(-c2nc(-c3ccncc3)c(-c3ccc(F)cc3)[nH]2)cc1` (stereo not drawn) [SB203580], the mortality entry in assay [2] is “reduce mortality”. Besides, the “development of collagen-induced arthritis” value in assay [3] was “inhibit the development”. The “development of adjuvant arthritis” value in assay [4] is listed as “inhibit the development”. The “inhibition of activation of MK-2” value in assay [5] is “inhibit activation of MK-2”.
On to `Nc1nccc(-c2c(-c3ccc(F)cc3)ncn2C2CCNCC2)n1` [SB 220025], for which, in assay [6], the “vascular density of granulomas” value is listed as “significant dose-dependent decrease in vascular density of granulomas”.
